Laboratory results as given in patent publication US20040180417A1, “Secretase/sheddase with asp-ase activity on the beta-site app-cleaving enzyme (bace, asp2, memepsin2)” (priority 2000, published 2004).
Starred links: 1 amine or outer side, 2 acyl side, 3 side chain; linkers in the order of their positions; H or OH if unused. Non-standard residues stand in square brackets, D forms with d. Residues, ends and D or L forms follow the SMILES beside them. *: point of attachment. X1 = CC(N[*:1])C(=O)C(F)(F)C(=O)[*:2]; Cbz = O=C(OCc1ccccc1)*; Boc = CC(C)(C)OC(=O)*; CH2F = FC*

Experiments:
[1] = tested on: BACE secretase/sheddase; experiment: BACE secretase/sheddase activity (BACE C-terminal fragments) in Neuro 2a cells; assay type: cell-based
Protocol: (§1) FIG. 8: [A] Neuro 2a APPSW cells were transiently transfected with cDNA for [BACEF]FG. Cells were labeled with ^35S-Met for 3 hrs in the absence (−, DMSO control) or presence of 100 uM of a substrate based γ-secretase inhibitor (+γ-sec I, DFK-167 Enzyme Systems products). Cell lysates were immunoprecipitaed with FG antibodies, reduced and analyzed by SDS-PAGE on 8% tricine gels. Cell lysates [B] and media [C] were immunoprecipited with antibody APP711-03 and analyzed by SDS-PAGE on 8% tricine gels. [D] Media was immunoprecipited with the 1-40 Aβ antibody and analyzed on a 14% tricine gel. The exposure time was 3 days.
Transfections and biosynthetic analyses—All transfections were done on 2−4×10^5 HK293 cells using Effectene (Qiagen) and a total of 1-1.5 μg of BACE contruct cDNAs subcloned into the vector pIRES2-EGFP. Two days post-transfection the cells were washed and then pulse-incubated for various times with either 200 μCi/ml of [^35S]Met; 400 μCi/ml Na2[^35SO4], [^3H]Leu, [^3H]Arg, [^3H]Ser; or 1 mCi/ml [^3H]palmitate EN) (20). Pulse-chase experiments with [^35S]Met were carried out as previously described (21). Cells were lysed in immunoprecipitation buffer [150 mM NaCl, 50 mM Tris-HCl pH 6.8, 0.5% NP40, 0.5% sodium deoxycholate and a protease inhibitor cocktail (Roche Diagnostics). The lysates and media were then prepared for immunoprecipitations as reported (22). The monoclonal antibodies used were directed against either the FL (Flag-M2; 1:500 dilution; Stratagene) or V5 (1:1000 dilution; Invitrogen) epitopes. Rabbit polyclonal antisera included those directed against aa 1-16 of human Aβ (produced in laboratory, dilution 1:200); anti-β-amyloid, recognizing mostly the C-terminal part of Aβ40 (A8326, dilution 1:200, Sigma); and FCA 18, recognizing all peptides starting with the Asp at the N-terminus of Aβ (23). Immunoprecipitates were resolved on SDS-PAGE (either 8% or 14% tricine gels) and autoradiographed (21). All PC inhibitor proteins were cloned in pcDNA3 (Invitrogen), including those of α1-PDX (8); the preprosegments of furin, PC7 (24), PC5 (25), SKI-1 (26,27); and wild type (α2-M) and furin-site mutated (α2-MG-F) α2-macroglubulin (28).
C-terminal processing of BACE—In order to further characterize the nature of apparent C-terminal cleaved BACE fragments (FIG. 5C), the analysis of [BACEF]FG fragments immunoprecipitated with antiserum to Flag from HK293 cells were repeated. In addition to the 6 kDa fragment noted in FIG. 5C, fragments of 34, 15, and 11 kDa are apparent (FIG. 7). […] In addition, the intensity of the 11 and 6 kDa bands appear to diminish. It was expected that some of these BACE fragments would be disulfide linked, since it is known that the six Cys residues in the ectodomain form three intramolecular disulfide linkages (Cys^216-Cys^420, Cys^278-Cys^443, Cys^330-Cys^380) (41). The 34, 15, 11 and 6 kDa BACE fragments are also apparent when [BACEF]FG is expressed in Neuro 2a cells (FIG. 8). The relative levels of the 11 kDa fragment compared to the other cleaved fragments of BACE appear lower in Neuro 2a compared to HK293 cells. In any case, the sites of ectodomain cleavage are apparently the same in the two cell types. […] The significance of an apparent reduction in the level of the 6 kDa BACE fragment is unknown.

[2] = tested on: γ-secretase; experiment: βAPP processing (Aβ, C99) in Neuro 2a APPSW cells; assay type: cell-based; details: 100 uM inhibitor, 3 hrs
Protocol: as §1
C-terminal processing of BACE—In order to further characterize the nature of apparent C-terminal cleaved BACE fragments (FIG. 5C), the analysis of [BACEF]FG fragments immunoprecipitated with antiserum to Flag from HK293 cells were repeated. In addition to the 6 kDa fragment noted in FIG. 5C, fragments of 34, 15, and 11 kDa are apparent (FIG. 7). […] In addition, the intensity of the 11 and 6 kDa bands appear to diminish. It was expected that some of these BACE fragments would be disulfide linked, since it is known that the six Cys residues in the ectodomain form three intramolecular disulfide linkages (Cys^216-Cys^420, Cys^278-Cys^443, Cys^330-Cys^380) (41). The 34, 15, 11 and 6 kDa BACE fragments are also apparent when [BACEF]FG is expressed in Neuro 2a cells (FIG. 8). […]

[3] = tested on: proBACE processing by PC-like enzyme; experiment: proBACE processing in HK293 cells co-expressing [BACEF]FG/V5 and PC-inhibitors (pulse-chase, immunoprecipitation, SDS-PAGE); assay type: cell-based, human; details: 15 min [35S]Met pulse, chase 1 h or 2h; FG epitope; α1-PDX co-transfected or BFA present
Protocol: FIG. 1: HK293 cells were transiently co-transfected with either ([BACEF]FG/V5+BDNF) [control, CTL] (A,C) or ([BACEF]FG/V5+α1-PDX) (B,D) cDNAs. Two days post-transfections the cells were pulse-labeled in the absence or presence of […] BFA for 15 min with [^35S]Met and then chased for 1 or 2h. Cell lysates were immunoprecipitated with either the FG or V5 mAbs and analysed by SDS-PAGE on 8% tricine gels. The migration position of the 53 kDa molecular mass standard and those of proBACE (pBACE) and BACE are emphasized.
FIG. 2: [A] HK293 cells were transiently co-transfected with cDNAs coding for either ([BACEF]FG/V5+BDNF) [control, CTL], ([BACEF-R45A]FG/V5+BDNF) or ([BACEF-R42A]FG/V5+BDNF) or ([BACEF]FG/V5+either α1-PDX, the prosegments of furin, PC5, PC7, SKI-1, furin-mutated (α2M-F) or wild type (α2M) α2-macroglobulin. The cells were pulse-labeled for 20 min with [^35S]Met and then chased for 90 min. Cell lysates were immunoprecipitated with the FG mAb and analysed by SDS-PAGE on 8% tricine gels. [B] HK293 cells were transiently co-transfected with cDNAs coding for either ([BACEF]FG/V5+BDNF) [CTL], ([BACEF]FG/V5+furin) or ([BACEF]FG/V5+α1-PDX). The cells were then pulse-labeled for 2h with Na2[^35SO4]. Cell lysates were immunoprecipitated with the FG or V5 mAbs and analysed by SDS-PAGE on 8% tricine gels. […]

[4] = tested on: proBACE; experiment: Exit of proBACE from the ER in HK293 cells (3h [35S]Met pulse); assay type: cell-based, human; details: 90 μM BFA or 250 nM bafilomycin, 37° C.
Protocol: FIG. 5: HK293 cells were transiently transfected with cDNAs coding for either [A,B] (BDNF+βAPPSW) [CTL] or ([BACEF]FG+βAPPSW), [C] [BACEF]FG or [BACES]FG. The cells were pulse-labeled for 3h with [^35S]Met at either 37° C. in the absence or presence of 90 μM BFA or 250 nM bafilomycin or at 20° C. Cell lysates were immunoprecipitated with either [A] the FG mAb or [B] the 1-16 Aβ antibody, and analysed by SDS-PAGE on 8% tricine gels. [C] FG antibody, and analysed by SDS-PAGE on 8% tricine gels. The arrowhead point to an ˜6 kDa intracellular stub of BACEF.
Transfections and biosynthetic analyses—All transfections were done on 2−4×10^5 HK293 cells using Effectene (Qiagen) and a total of 1-1.5 μg of BACE contruct cDNAs subcloned into the vector pIRES2-EGFP. Two days post-transfection the cells were washed and then pulse-incubated for various times with either 200 μCi/ml of [^35S]Met; 400 μCi/ml Na2[^35SO4], [^3H]Leu, [^3H]Arg, [^3H]Ser; or 1 mCi/ml [^3H]palmitate EN) (20). Pulse-chase experiments with [^35S]Met were carried out as previously described (21). Cells were lysed in immunoprecipitation buffer [150 mM NaCl, 50 mM Tris-HCl pH 6.8, 0.5% NP40, 0.5% sodium deoxycholate and a protease inhibitor cocktail (Roche Diagnostics). The lysates and media were then prepared for immunoprecipitations as reported (22). […]

[5] = target: T1, BACE (Mus musculus, UniProt P56818); experiment: In vitro β-secretase activity on a 20 aa synthetic βAPPSW peptide (RP-HPLC); assay type: biochemical
T1 construct: TDEST454; FLAG (DYKDDDDK), inserted just after the signal peptide cleavage site (after Ala19) (N); made in house; host or cells: HK293 cells, transiently transfected; 10-20 fold-concentrated medium

[6] = tested on: [proBACES]FG/V5; experiment: In vitro PC-mediated processing of proBACES (Western blot); assay type: biochemical, mouse; details: equivalent hydrolytic activities of PCs, 1-4 hours incubation

T1 sequence (P56818 46-457 limits assumed): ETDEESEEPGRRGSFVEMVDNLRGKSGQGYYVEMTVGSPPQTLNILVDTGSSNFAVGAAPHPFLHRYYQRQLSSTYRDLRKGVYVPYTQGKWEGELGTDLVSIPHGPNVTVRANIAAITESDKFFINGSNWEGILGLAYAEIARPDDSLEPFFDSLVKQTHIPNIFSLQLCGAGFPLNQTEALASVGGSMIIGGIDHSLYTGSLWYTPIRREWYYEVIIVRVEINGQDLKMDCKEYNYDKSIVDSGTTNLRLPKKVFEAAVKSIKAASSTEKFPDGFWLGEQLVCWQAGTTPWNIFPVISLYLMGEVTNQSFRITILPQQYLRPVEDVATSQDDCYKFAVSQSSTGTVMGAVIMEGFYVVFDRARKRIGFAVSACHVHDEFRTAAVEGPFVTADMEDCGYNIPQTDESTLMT

## CCC(C)C(NC(=O)C(NC(=O)OC(C)(C)C)C(C)C)C(=O)NC(C)C(=O)C(F)(F)C(=O)NC(C(=O)NC(C(=O)OC)C(C)CC)C(C)C (stereo not shown) (Boc-VI[X1]VI-OMe; configuration not given here)
[1]; Neuro 2a APPSW cells transfected with [BACEF]FG, 100 uM inhibitor, 3 hrs
  levels of BACE fragments (34, 15 and 11 kDa): largely unchanged
[1]; Neuro 2a cells
  inhibition of BACE secretase/sheddase activity: does not inhibit
[2]; cell lysates
  cellular C99 levels: elevates
[2]; media
  Aβ formation: completely inhibits

## C[C@H]1CCC/C=C/[C@@H]2C[C@H](O)C[C@H]2[C@H](O)/C=C/C(=O)O1 [BFA, brefeldin A]
[3]
  72 kDa proBACE form: not apparent
[4]
  escape of 66 kDa proBACE from the ER: prevented

## CNC(=O)[C@H](Cc1c[nH]c2ccccc12)NC(=O)[C@@H](CC(=O)NO)CC(C)C [GM6001]
[1]; Neuro 2a cells
  inhibition of BACE secretase/sheddase activity: did not inhibit

## CC(C)C[C@H](CC(=O)NO)C(=O)N[C@@H](Cc1ccc2ccccc2c1)C(=O)N[C@@H](C)C(=O)NCCN [TAPI-1]
[1]; Neuro 2a cells
  inhibition of BACE secretase/sheddase activity: did not inhibit

## COC(=O)C[C@H](NC(=O)[C@H](C)NC(=O)[C@@H](NC(=O)OCc1ccccc1)C(C)C)C(=O)CF [Z-Val-Ala-Asp(OMe)-CH2F] (Cbz-Val-Ala-Asp(OMe)-CH2F)
[1]; Neuro 2a cells, 100 uM
  effect on BACE secretase/sheddase activity: had no effect

## CO/C1=C\C(C)=C\[C@@H](C)[C@@H](O)[C@@H](C)C/C(C)=C/C=C/[C@H](OC)[C@@H]([C@@H](C)[C@@H](O)[C@H](C)[C@@]2(O)C[C@@H](O)[C@H](C)[C@@H](C(C)C)O2)OC1=O [bafilomycin]
[4]
  escape of 66 kDa proBACE from the ER: retarding effect

## THLGIRLPLRSGLAGPPLGLRLPR [proBACE 22-45]
[5]; 20 μM peptide pre-incubated with active BACE, substrate at 10 μM
  inhibition of the Swedish peptide substrate cleavage: 20%

## furin
[5]; pre-incubation of BACES-containing media with furin, four separate experiments
  increase in the level of BACE activity: 50±3%
[6]
  time to completely process proBACE into BACE: ≤ 2 h
